The text below walks through data of ChEMBL document CHEMBL5352415, “Discovery of new macrophage M2 polarization modulators as multiple sclerosis treatment agents that enable the inflammation microenvironment remodeling” (Eur J Med Chem, 2022).

Data set [1] is described as follows: Induction of M2 macrophage polarization in C57BL/6 mouse BMDM cells assessed as fold increase in Ym1 gene level at 1 uM incubated for 24 hrs by qRT-PCR analysis. It is filed as functional. (In general: In qPCR the cycle at which signal appears reflects the starting amount.)
Data set [2] has as its target RAC-beta serine/threonine-protein kinase (Homo sapiens, UniProt P31751). Nature of the data set: Inhibition of AKT2 (unknown origin). The data set is classed as binding.
Data set [3] deals with RAC-alpha serine/threonine-protein kinase (Homo sapiens, UniProt P31749). Nature of the data set: Inhibition of AKT1 (unknown origin). It is filed as binding.
A short description of data set [4]: Induction of M2 macrophage polarization in C57BL/6 mouse BMDM cells assessed as fold increase in Arg1 gene level at 1 uM incubated for 24 hrs by qRT-PCR analysis. The data set is classed as functional.
Data set [5] is described as follows: Inhibition of M1 macrophage polarization in C57BL/6 mouse BMDM cells assessed as fold decrease in Inos gene level at 1 uM incubated for 24 hrs by qRT-PCR analysis (reference value: 1). It is filed as functional.
Data set [6] can be described thus: Inhibition of LPS-induced M1 macrophage polarization in C57BL/6 mouse BMDM cells assessed as fold decrease in Inos gene level at 1 uM preincubated with LPS for 24 hrs followed by compound addition and measured after 24 hrs by qRT-PCR analysis (reference value: 524.05 +/- 24.75). The data set is classed as functional.
Data set [7] has as its target T1, RAC-alpha serine/threonine-protein kinase (Mus musculus, UniProt P31750). Put plainly: Inhibition of LPS-induced Akt phosphorylation at Ser473 in C57BL/6 mouse BMDM cells at 50 to 500 nM incubated for 24 hrs by Western blot analysis. It is filed as cell-based. Particulars: 0.5 µM, dose 50-500 nM. (Immunoblotting shows a protein as a band on a membrane.)
Data set [8] deals with T1, RAC-alpha serine/threonine-protein kinase. Put plainly: Inhibition of Akt phosphorylation at Ser473 in C57BL/6 mouse BMDM cells at 50 to 500 nM incubated for 24 hrs by Western blot analysis. The data set is classed as cell-based. Particulars: 0.5 µM, dose 50-500 nM; call rule not given here.

Chain of RAC-beta serine/threonine-protein kinase (P31751 whole entry): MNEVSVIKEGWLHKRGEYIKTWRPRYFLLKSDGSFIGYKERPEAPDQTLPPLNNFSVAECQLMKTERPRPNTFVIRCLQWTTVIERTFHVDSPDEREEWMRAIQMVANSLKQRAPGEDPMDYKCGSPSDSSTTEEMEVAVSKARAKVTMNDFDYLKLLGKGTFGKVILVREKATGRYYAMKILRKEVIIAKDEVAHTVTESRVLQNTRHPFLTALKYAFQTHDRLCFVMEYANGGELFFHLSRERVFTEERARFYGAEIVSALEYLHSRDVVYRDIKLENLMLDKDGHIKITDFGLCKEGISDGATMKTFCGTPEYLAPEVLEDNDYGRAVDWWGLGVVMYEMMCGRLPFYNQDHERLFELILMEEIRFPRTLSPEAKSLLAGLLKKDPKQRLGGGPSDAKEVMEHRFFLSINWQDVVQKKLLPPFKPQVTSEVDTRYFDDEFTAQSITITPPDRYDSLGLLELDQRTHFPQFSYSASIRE
Chain of RAC-alpha serine/threonine-protein kinase (Homo sapiens, UniProt P31749) (P31749 whole entry): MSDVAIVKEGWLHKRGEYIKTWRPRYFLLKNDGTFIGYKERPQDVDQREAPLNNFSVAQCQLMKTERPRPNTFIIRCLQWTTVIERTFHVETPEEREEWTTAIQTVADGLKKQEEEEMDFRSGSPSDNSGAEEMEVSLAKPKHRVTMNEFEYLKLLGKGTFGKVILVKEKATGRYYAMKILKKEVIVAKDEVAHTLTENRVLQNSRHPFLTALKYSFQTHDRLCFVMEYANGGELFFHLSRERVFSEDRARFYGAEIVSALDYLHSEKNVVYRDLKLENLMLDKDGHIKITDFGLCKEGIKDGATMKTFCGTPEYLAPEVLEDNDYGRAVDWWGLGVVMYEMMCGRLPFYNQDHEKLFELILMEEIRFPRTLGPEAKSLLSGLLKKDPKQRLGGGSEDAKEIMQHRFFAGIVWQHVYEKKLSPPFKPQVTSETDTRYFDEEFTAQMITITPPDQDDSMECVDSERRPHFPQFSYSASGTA
T1 sequence (P31750 whole entry): as the sequence (P31749 whole entry) above, with S2N, A50S, T100A, K112R, E117T, K389T, G410N, H415D counted along it

In the case of `Cl.Cn1nccc1-c1ccc(C(=O)N[C@@H]2CNCC[C@H]2c2ccc(F)c(F)c2)cc1C1CC1`, the entries for the “fold change (FC)” value in data set [1] and in data set [4] were 1.38 and 3.31, respectively. Further, the IC50 in data set [2] was more than 1000 nM; in data set [3], 157 nM.
Regarding `Cn1ncc(Cl)c1-c1ccc(C(=O)N[C@@H]2CNCC[C@H]2c2ccc(F)c(F)c2)cc1`, the “fold change (FC)” value was 8.63 in data set [1] and 2.41 in data set [4]. In addition, the IC50 in data set [3] came to 5 nM.
Turning to `Cc1cc(C(=O)N[C@@H]2CNCC[C@H]2c2ccc(F)c(F)c2)ccc1-c1c(Br)cnn1C.Cl`, the “fold change (FC)” value was determined as 4.87 in data set [1] and 2.62 in data set [4]. In addition, the IC50 in data set [2] was more than 1000 nM; in data set [3], 341 nM.
Turning to `CCCc1cc(C(=O)N[C@@H]2CNCC[C@H]2c2ccc(F)c(F)c2)ccc1-c1ccnn1C.Cl`, the results for the “fold change (FC)” value in data set [1] and in data set [4] were 3.84 and 1.43, respectively. In data set [3], it took 92 nM to reach half-maximal inhibition (IC50).
Turning to `Cc1cc(C(=O)N[C@@H]2CNCC[C@H]2c2ccc(F)c(F)c2)ccc1-c1ccnn1C.Cl`, the “fold change (FC)” value in data set [1] is on record as 14.49; in data set [5], 0.82; in data set [4], 8.13; in data set [6] it was 313.7. This molecule gave a concentration for half-maximal inhibition (IC50) in data set [3] of 102 nM.
Regarding `CC(C)c1cc(C(=O)N[C@@H]2CNCC[C@H]2c2ccc(F)c(F)c2)ccc1-c1ccnn1C.Cl`, the “fold change (FC)” value in data set [1] and in data set [4] was 2.06 in each case. For the same molecule, the figures for the half-inhibitory concentration (IC50) in data set [2] and in data set [3] were more than 1000 nM and 555 nM, respectively.
Turning to `CC(C)c1cc(C(=O)N[C@@H]2CNCC[C@H]2c2ccc(F)c(F)c2)ccc1-c1c(Br)cnn1C.Cl`, the entries for the “fold change (FC)” value in data set [1] and in data set [4] were 4.49 and 2.6, respectively. In addition, the half-inhibitory concentration (IC50) in data set [2] and in data set [3] was more than 1000 nM in each case.
For `CCCc1cc(C(=O)N[C@@H]2CNCC[C@H]2c2ccc(F)c(F)c2)ccc1-c1c(Br)cnn1C.Cl`, the “fold change (FC)” value stood at 3.86 in data set [1] and 1.42 in data set [4]. Moreover, the IC50 in data set [2] and in data set [3] was more than 1000 nM throughout.
As for `Cl.O=C(N[C@@H]1CNCC[C@H]1c1ccc(F)c(F)c1)c1c(F)cc(-c2[nH]ncc2Br)cc1F`, the “fold change (FC)” value in data set [1] is given as 19.79; in data set [4], 2.38. Moreover, the half-inhibitory concentration (IC50) in data set [3] was more than 1000 nM.
`Cl.O=C(N[C@@H]1CNCC[C@H]1c1ccc(F)c(F)c1)c1c(F)cc(-c2ccn[nH]2)cc1F`: the “fold change (FC)” value came to 8.14 in data set [1] and 1.72 in data set [4]. Besides, the concentration for half-maximal inhibition (IC50) in data set [2] was more than 1000 nM; in data set [3], 28 nM.
For the molecule `CC(C)c1cc(C(=O)N[C@@H]2CNCC[C@H]2c2ccc(F)c(F)c2)ccc1-c1c(Cl)cnn1C.Cl`, the “fold change (FC)” value was determined as 5.03 in data set [1] and 2.77 in data set [4]. The same molecule registered an IC50 in data set [3] of 69.3 nM.
Consider `Cn1nccc1-c1ccc2c(c1)CN([C@@H]1CNCC[C@H]1c1ccc(F)c(F)c1)C2=O`, for which the entries for the “fold change (FC)” value in data set [1] and in data set [4] were 3.59 and 2.24, respectively. For the same molecule, the IC50 in data set [3] was 4.3 nM.
Consider `CCCc1cc(C(=O)N[C@@H]2CNCC[C@H]2c2ccc(F)c(F)c2)ccc1-c1c(Cl)cnn1C.Cl`, for which the entries for the “fold change (FC)” value in data set [1] and in data set [4] were 3.47 and 1.92, respectively. For the same molecule, the half-inhibitory concentration (IC50) in data set [3] is 245 nM.
Regarding `Cl.Cn1ncc(Cl)c1-c1ccc(C(=O)N[C@@H]2CNCC[C@H]2c2ccc(F)c(F)c2)cc1C1CC1`, the results for the “fold change (FC)” value in data set [1] and in data set [4] were 3.51 and 2.62, respectively. Also, half-maximal inhibition in data set [3] (IC50) required 143 nM.
As to `Cn1ncc(Br)c1-c1ccc2c(c1)CN([C@@H]1CNCC[C@H]1c1ccc(F)c(F)c1)C2=O`, the “fold change (FC)” value in data set [1] turned out to be 7.52; in data set [4] it was 1.93. In addition, the 50% inhibitory concentration (IC50) in data set [2] was found to be 2.7 nM; in data set [3] it was 1.6 nM.
In the case of `Cl.O=C(N[C@@H]1CNCC[C@H]1c1ccc(F)c(F)c1)c1c(F)cc(-c2ccn[nH]2)cc1Cl`, the “fold change (FC)” value in data set [1] was 1.94; in data set [4], 1.39. The half-inhibitory concentration (IC50) in data set [3] amounted to 69.2 nM.
Take `Cc1cc(C(=O)N[C@@H]2CNCC[C@H]2c2ccc(F)c(F)c2)ccc1-c1c(Cl)cnn1C.Cl`: the “fold change (FC)” value in data set [1] is 12.2; in data set [4], 1.55. The same molecule registered an IC50 in data set [3] of 299 nM. The “inhibition (INH)” value in data set [7] and in data set [8] was “Not Active” throughout.

Broadly, the IC50 is the concentration that gives 50% inhibition. A lower IC50 goes with higher potency.
